Drawing on patent US6750228B1, “Aromatic sulfone hydroxamic acid metalloprotease inhibitor” (priority 1997, dated 2004), this text covers IC50 for 29 molecules.

Structures can show the parent of a compound that is named as a salt.

Assay in all cases: biochemical
Experiment [1] concerns the target T1, MMP-2 (Homo sapiens, UniProt P08253).
T1 construct: made in house; provided by Dr. Gregory Goldberg, Washington University
T1 sequence (P08253 110-660): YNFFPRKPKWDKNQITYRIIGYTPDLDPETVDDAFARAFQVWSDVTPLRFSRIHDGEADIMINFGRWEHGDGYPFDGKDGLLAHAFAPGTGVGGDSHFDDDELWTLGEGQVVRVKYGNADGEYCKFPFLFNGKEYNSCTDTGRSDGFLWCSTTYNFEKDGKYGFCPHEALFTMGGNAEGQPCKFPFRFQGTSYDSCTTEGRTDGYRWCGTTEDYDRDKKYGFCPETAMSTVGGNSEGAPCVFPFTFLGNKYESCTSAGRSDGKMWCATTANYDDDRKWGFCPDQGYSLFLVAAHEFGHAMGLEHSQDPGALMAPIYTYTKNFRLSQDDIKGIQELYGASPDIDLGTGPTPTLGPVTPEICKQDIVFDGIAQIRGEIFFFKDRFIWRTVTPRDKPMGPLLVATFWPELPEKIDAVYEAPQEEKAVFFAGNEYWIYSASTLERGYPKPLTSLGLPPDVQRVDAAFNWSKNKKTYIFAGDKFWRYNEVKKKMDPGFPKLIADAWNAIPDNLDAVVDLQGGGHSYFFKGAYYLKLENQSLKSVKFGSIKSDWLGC
The settings on record: recombinant human MMP-2, MCA peptide substrate 4 μM, pH 7.5, room temperature; read-out: MMP-2 IC50. The gist of the method: (§1)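 Assay buffer 100 mM Tris-HCl, 100 mM NaCl, 10 mM CaCl2, pH 7.5. Activated MMP + inhibitor, 5 min RT; then methoxycoumarin peptide substrate, 4 μM final. Readout fluorescence; IC50 calculated.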

Experiment [2] has as its target T2, MMP-1 (Homo sapiens, UniProt P03956).
T2 construct: made in house; host or cells: transfected HT-1080 cells (provided by Dr. Harold Welgus, Washington University)
T2 sequence (P03956 100-469): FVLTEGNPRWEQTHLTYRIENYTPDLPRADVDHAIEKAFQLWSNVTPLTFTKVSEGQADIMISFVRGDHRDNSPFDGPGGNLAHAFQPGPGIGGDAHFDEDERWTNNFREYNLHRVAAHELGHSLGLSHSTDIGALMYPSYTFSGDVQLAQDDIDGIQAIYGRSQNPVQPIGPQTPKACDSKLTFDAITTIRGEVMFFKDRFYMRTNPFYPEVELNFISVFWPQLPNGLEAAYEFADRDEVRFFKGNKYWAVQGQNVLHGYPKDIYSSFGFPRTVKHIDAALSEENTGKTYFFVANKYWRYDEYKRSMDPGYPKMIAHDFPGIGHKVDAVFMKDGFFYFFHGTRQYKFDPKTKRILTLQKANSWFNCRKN
As to conditions: recombinant human MMP-1, MCA peptide substrate 4 μM, pH 7.5, room temperature; read-out: MMP-1 IC50. The gist of the method:
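APMA- or trypsin-activated enzymes were preincubated with inhibitor for 5 min at room temperature, then the fluorogenic substrate MCA-Pro-Leu-Gly-Leu-Dpa-Ala-Arg-NH2 was added to a final 4 μM.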

Experiment [3] concerns the target T3, MMP-13 (Homo sapiens, UniProt P45452).
T3 construct: made in house; host or cells: baculovirus / insect cells
The settings on record: recombinant human MMP-13, MCA peptide substrate 4 μM, pH 7.5, room temperature; read-out: MMP-13 IC50. The method in brief:
as §1

Take `COCCN1CCC(C(=O)NO)(S(=O)(=O)c2ccc(N3CCC(C(=O)Nc4ccc(OC(F)(F)F)cc4)CC3)cc2)CC1` [Example 248, N-Hydroxy-1-(2-methoxyethyl)-4-[[4-[4-[[[4-(trifluoromethoxy)phenyl]amino]carbonyl]-1-piperidinyl]-phenyl]sulfonyl]-4-piperidinecarboxamide, Monohydrochloride]: the IC50 in experiment [1] was 270 nM; in experiment [2] it was over 10000 nM; in experiment [3] it was 2.29 nM.

For the molecule `C=CCCC(=O)C1CCN(c2ccc(S(=O)(=O)C3(C(=O)NO)CCOCC3)cc2)CC1` [Example 758], the results for the IC50 in experiment [1], in experiment [2] and in experiment [3] were 34.7 nM, over 10000 nM and 5 nM, respectively.

In the case of `O=C(NO)C1(S(=O)(=O)c2ccc(Oc3cccnc3)cc2)CCSCC1` [Example 149], the IC50 in experiment [1] amounted to 13.8 nM; in experiment [2], 480 nM; in experiment [3] it was 15.8 nM.

For the molecule `CC(C)NC(=O)OC1CCN(c2ccc(S(=O)(=O)C3(C(=O)NO)CCOCC3)cc2)CC1` [Example 517], the figures for the IC50 in experiment [1], in experiment [2] and in experiment [3] were 1100 nM, over 10000 nM and 14 nM, respectively.

For the molecule `Cc1ccc(N2CCC(C(=O)NO)(S(=O)(=O)c3ccc(Oc4ccc(OC(F)(F)F)cc4)cc3)CC2)cc1` [Example 229, N-Hydroxy-1-(4-methylphenyl)-4-[[4-[4-(trifluoromethoxy)phenoxy]phenyl]sulfonyl]-4-piperidinecarboxamide Monohydrochloride], the figures for the IC50 in experiment [1], in experiment [2] and in experiment [3] were 0.1 nM, over 10000 nM and 0.18 nM, respectively.

In the case of `O=C(NO)C1(S(=O)(=O)c2ccc(N3CCC(Oc4ccccc4C(F)(F)F)CC3)cc2)CCOCC1` [Example 568], the IC50 in experiment [1] was 4600 nM; in experiment [2], over 10000 nM; in experiment [3] it was 120 nM.

With `COCCN1CCN(CC(=O)N2CCC(C(=O)NO)(S(=O)(=O)c3ccc(Oc4ccc(C(F)(F)F)cc4)cc3)CC2)CC1` [Example 330], the IC50 in experiment [1] was 0.7 nM; in experiment [2], over 10000 nM; in experiment [3], 0.5 nM.

With `O=C(c1ccc(OC(F)(F)F)cc1)N1CCC(C(=O)NO)(S(=O)(=O)c2ccc(Oc3ccc(C(F)(F)F)cc3)cc2)CC1` [Example 140], the IC50 in experiment [1] was 0.8 nM; in experiment [2] it was over 10000 nM; in experiment [3], 11.4 nM.

Consider `CCc1cccc(C(=O)C2CCN(c3ccc(S(=O)(=O)C4(C(=O)NO)CCOCC4)cc3)CC2)c1` [Example 732], for which the IC50 in experiment [1] was 590 nM; in experiment [2], over 10000 nM; in experiment [3], 3.1 nM.

Take `O=C(NO)C1(S(=O)(=O)c2ccc(N3CCC(OCc4ccccc4F)CC3)cc2)CCOCC1` [Example 576]: the values for the IC50 in experiment [1], in experiment [2] and in experiment [3] were 78 nM, over 10000 nM and 8.8 nM, respectively.

Regarding `O=C(NO)C1(S(=O)(=O)c2ccc(N3CCC(OCc4ccccn4)CC3)cc2)CCOCC1` [Example 578], the IC50 in experiment [1] is 2000 nM; in experiment [2], over 10000 nM; in experiment [3], 160 nM.

With `CC(C)c1ccc(C(=O)C2CCN(c3ccc(S(=O)(=O)C4(C(=O)NO)CCOCC4)cc3)CC2)cc1` [Example 788], the values for the IC50 in experiment [1], in experiment [2] and in experiment [3] were 445 nM, over 10000 nM and 3 nM, respectively.

With `CC(=N)N1CCC(C(=O)NO)(S(=O)(=O)c2ccc(Oc3ccc(OC(F)(F)F)cc3)cc2)CC1` [Example 412], the figures for the IC50 in experiment [1], in experiment [2] and in experiment [3] were 0.2 nM, 6400 nM and 0.4 nM, respectively.

For `C=C(C)CC(=O)C1CCN(c2ccc(S(=O)(=O)C3(C(=O)NO)CCOCC3)cc2)CC1` [Example 759], the results for the IC50 in experiment [1], in experiment [2] and in experiment [3] were 60.8 nM, over 10000 nM and 3 nM, respectively.

Consider `COCCN1CCC(C(=O)NO)(S(=O)(=O)c2ccc(N3CCC(C(=O)N(C)c4ccccc4)CC3)cc2)CC1` [Example 244, 1-[4-[[4-[(Hydroxyamino)carbonyl]-1-(2-methoxyethyl)-4-piperidinyl]-sulfonyl]phenyl]-N-methyl-N-phenyl-4-piperidinecarboxamide, Monohydrate], for which the IC50 in experiment [1] is 4400 nM; in experiment [2], over 10000 nM; in experiment [3] it was 67.4 nM.

For `COc1ccccc1C(=O)C1CCN(c2ccc(S(=O)(=O)C3(C(=O)NO)CCOCC3)cc2)CC1` [Example 655], the IC50 was 1400 nM in experiment [1], over 10000 nM in experiment [2] and 37.3 nM in experiment [3].

On to `O=C(NO)C1(S(=O)(=O)c2ccc(OC3CCC(OCc4ccccc4Cl)C3)cc2)CCOCC1` (stereo not drawn) [Example 688], for which the results for the IC50 in experiment [1], in experiment [2] and in experiment [3] were 110 nM, over 10000 nM and 17.6 nM, respectively.

As for `CC(C)N1CCC(C(=O)NO)(S(=O)(=O)c2ccc(N3CCC(SCc4ccc(OC(F)(F)F)cc4)CC3)cc2)CC1` [Example 462], the IC50 in experiment [1] is 80 nM; in experiment [2] it was over 10000 nM; in experiment [3], 2.9 nM.

`Cc1cccc(COC2CCC(Oc3ccc(S(=O)(=O)C4(C(=O)NO)CCOCC4)cc3)C2)c1` (stereo not drawn) [Example 651]: the IC50 in experiment [1] was 60 nM; in experiment [2], over 10000 nM; in experiment [3], 13.7 nM.

For the molecule `Cc1cc(C(=O)C2CCN(c3ccc(S(=O)(=O)C4(C(=O)NO)CCOCC4)cc3)CC2)ccc1Cl` [Example 858], the IC50 is 600 nM in experiment [1], over 10000 nM in experiment [2] and 3.7 nM in experiment [3].

`O=C(NO)C1(S(=O)(=O)c2ccc(N3CCC(OCc4ccc(OC(F)(F)F)cc4)CC3)cc2)CCOCC1` [Example 175]: the IC50 in experiment [1] is 290 nM; in experiment [2], over 10000 nM; in experiment [3] it was 2.5 nM.

Turning to `O=C(NO)C1(S(=O)(=O)c2ccc(N3CCC(OCc4ccccc4-c4ccccc4)CC3)cc2)CCOCC1` [Example 181], the IC50 in experiment [1] is 2300 nM; in experiment [2] it was over 10000 nM; in experiment [3], 190 nM.

On to `O=C(NO)C1(S(=O)(=O)c2ccc(N3CCC(Oc4ccc(Br)cc4)CC3)cc2)CCOCC1` [Example 479], for which the IC50 was 60 nM in experiment [1], over 10000 nM in experiment [2] and 5 nM in experiment [3].

As for `CN1CCN(CCCCC(=O)N2CCC(C(=O)NO)(S(=O)(=O)c3ccc(Oc4ccc(C(F)(F)F)cc4)cc3)CC2)CC1` [Example 339], the IC50 in experiment [1] is 0.3 nM; in experiment [2], over 10000 nM; in experiment [3], 1 nM.

Turning to `Cc1cccc(S(=O)(=O)N2CCN(c3ccc(S(=O)(=O)C4(C(=O)NO)CCOCC4)cc3)CC2)c1` [Example 671], the IC50 in experiment [1] was 130 nM; in experiment [2] it was over 10000 nM; in experiment [3] it was 6 nM.

`CCCNC(=O)C1CCN(c2ccc(S(=O)(=O)C3(C(=O)NO)CCOCC3)cc2)CC1` [Example 57]: the figures for the IC50 in experiment [1], in experiment [2] and in experiment [3] were 2700 nM, over 10000 nM and 80 nM, respectively.

As to `CCOc1ccc(NC(=O)OC2CCN(c3ccc(S(=O)(=O)C4(C(=O)NO)CCOCC4)cc3)CC2)cc1` [Example 190], the IC50 is 136 nM in experiment [1], over 10000 nM in experiment [2] and 4.7 nM in experiment [3].

In the case of `O=C(NO)C1(S(=O)(=O)c2ccc(N3CCC(OCc4ccc(Cl)c(Cl)c4)CC3)cc2)CCOCC1` [Example 176], the IC50 was 250 nM in experiment [1], over 10000 nM in experiment [2] and 4 nM in experiment [3].

As for `CC(C)c1ccc(Oc2ccc(S(=O)(=O)C3(C(=O)NO)CCSCC3)cc2)cc1` [Example 148], the results for the IC50 in experiment [1], in experiment [2] and in experiment [3] were 3.7 nM, over 10000 nM and 2.5 nM, respectively.

For orientation: IC50 means the concentration that inhibits the measured activity by half.
